Measurements taken from paper PMC12037410, “Pharmacological targeting of BMAL1 modulates circadian and immune pathways” (Nature Chemical Biology, 2025).
Like-named read-outs stand apart in the source and are kept apart here.

Assays:
[1] = target: T1, BMAL1 (Homo sapiens, UniProt O00327); assay: ITC; also crystal structure ([…] Å), SPR (Kd […]), PTS (ΔTm […] °C), CETSA (EC50 […]); assay type: binding; set-up: PASB domain (338–449 amino acids)
[2] = target: T1, BMAL1; set-up: PASB domain (residues 338–449); Protein thermal shift (PTS) fragment screen on recombinant human BMAL1(PASB), shift of melting temperature; conditions: dTmB, binder

T1 sequence (O00327 338-449): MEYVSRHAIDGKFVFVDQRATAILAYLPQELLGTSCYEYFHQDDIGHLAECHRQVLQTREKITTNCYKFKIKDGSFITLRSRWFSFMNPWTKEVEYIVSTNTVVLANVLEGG

Compound | Bmal1(PASB) dTmB [2] [°C] | also measured
CCc1ccc(OCC(F)CO)c2occc12 (racemic) [compound 4, CCM] |  | Kd [1]: 1990 ± 380 nM
CN1CCN(c2ccc(N)cc2)CC1 [Prestw-Frag-3670, Compound 20] | 0.65 | 
CCN1CCCC1CN (stereo not drawn) [Prestw-Frag-3671, Compound 99] | -0.56 | 
Fc1ccc(CN2CCNCC2)cc1 [Prestw-Frag-3673, Compound 274] | -1.00 | 
O=C(c1ccccc1)N1CCNCC1 [Prestw-Frag-3677, Compound 184] | -0.65 | 
COc1ccc2nc[nH]c2c1 [Prestw-Frag-3678, Compound 41] | -0.91 | 
O=C1CC2(CCCC2)CC(=O)N1 [Prestw-Frag-3680, Compound 36] | -2.38 | 
Nc1ccc2c(c1)CCCC2 [Prestw-Frag-3682, Compound 71] | 0.33 | 
Nc1ncns1 [Prestw-Frag-3683, Compound 69] | -0.32 | 
CC(=O)c1ccc2c(c1)OCO2 [Prestw-Frag-3686, Compound 57] | -1.06 | 
NCc1ncc[nH]1 [Prestw-Frag-3689, Compound 15] | -1.37 | 
CNC(=O)c1c(-c2ccccc2)noc1C [Prestw-Frag-3690, Compound 210] | -0.42 | 
CN1CCN(CCCC(=O)c2ccc(F)cc2)CC1 [Prestw-Frag-3692, Compound 279] | -0.28 | 
Oc1cccc2[nH]ccc12 [Prestw-Frag-3696, Compound 12] | -0.70 | 
O=C1COc2cc(O)ccc21 [Prestw-Frag-3703, Compound 77] | 0.62 | 
c1ccc(C2COCCN2)cc1 (stereo not drawn) [Prestw-Frag-3705, Compound 182] | -0.30 | 
CC(C(=O)O)c1cccc(F)c1 (stereo not drawn) [Prestw-Frag-3706, Compound 79] | 0.26 | 
NC1CCc2[nH]c3ccccc3c2C1 (stereo not drawn) [Prestw-Frag-3709, Compound 361] | 1.14 | 
O=C(O)C(c1ccccc1)c1ccccc1 [Prestw-Frag-3711, Compound 127] | -0.11 | 
c1ccc(C2CCCNCC2)cc1 (stereo not drawn) [Prestw-Frag-3712, Compound 230] | -0.85 | 
Oc1ccc2c(c1)CCC2 [Prestw-Frag-3713, Compound 89] | -0.82 | 
NC1CCC(=O)NC1=O (stereo not drawn) [Prestw-Frag-3716, Compound 102] | -0.05 | 
CC(O)(C(=O)O)c1ccccc1 (stereo not drawn) [Prestw-Frag-3717, Compound 103] | -0.01 | 
O=C1CNCN1 [Prestw-Frag-3718, Compound 116] | -0.07 | 
c1cncc(CN2CCNCC2)c1 [Prestw-Frag-3722, Compound 288] | -0.77 | 
NC(=O)N1CCNCC1 [Prestw-Frag-3723, Compound 152] | 0.03 | 
Cc1n[nH]c(C)c1N [Prestw-Frag-3724, Compound 23] | -1.19 | 

Compound | Bmal1(PASB) dTmB [2] [°C] | also measured
FC(F)(F)c1ccn[nH]1 [Prestw-Frag-3726, Compound 192] | 0.30 | 
OCC1CCNCC1 [Prestw-Frag-3727, Compound 325] | 0.08 | 
OCC1CCCNC1 (stereo not drawn) [Prestw-Frag-3728, Compound 390] | -0.26 | 
c1cc(N2CCNCC2)ncn1 [Prestw-Frag-3729, Compound 289] | -0.01 | 
N#CCC(=O)N1CCCCC1 [Prestw-Frag-3730, Compound 302] | 0.12 | 
CCN(CC)C(=O)CC#N [Prestw-Frag-3731, Compound 282] | -0.04 | 
c1ccc2c(c1)NCCO2 [Prestw-Frag-3732, Compound 54] | 0.57 | 
CC(C)(CN)c1ccccc1 [Prestw-Frag-3733, Compound 285] | -0.30 | 
O=c1[nH]cncc1-c1ccccc1 [Prestw-Frag-3734, Compound 254] | -0.26 | 
Oc1ccccc1N1CCNCC1 [Prestw-Frag-3738, Compound 34] | 0.10 | 
COc1ccc2c(c1)CCC(C(=O)O)C2 (stereo not drawn) [Prestw-Frag-3739, Compound 163] | 0.52 | 
Cn1c(N)nc2ccccc21 [Prestw-Frag-3740, Compound 377] | -0.10 | 
OCc1ccc2c(c1)OCO2 [Prestw-Frag-3741, Compound 372] | -0.20 | 
CC1=NN(c2ccccc2)C(=O)C1 [Prestw-Frag-3742, Compound 81] |  | Bmal1(PASB) dTmB ([2]; Bmal1(PASB) dTmB): 1.77 °C
Cc1nc(-c2ccccc2)cs1 [Prestw-Frag-3743, Compound 378] | -0.52 | 
c1ccc(-n2ccnc2)cc1 [Prestw-Frag-3744, Compound 409] | -0.78 | 
Cc1nc(-c2ccccc2F)cs1 [Prestw-Frag-3745, Compound 298] | -0.20 | 
NCCc1ccc(F)cc1F [Prestw-Frag-3746, Compound 138] | -0.34 | 
NCc1cscn1 [Prestw-Frag-3747, Compound 29] | -1.05 | 
NCCOCc1ccccc1 [Prestw-Frag-3749, Compound 335] | 0.05 | 
c1ccc2c(c1)CCNCC2 [Prestw-Frag-3750, Compound 343] | -0.06 | 
NCC1(c2ccccc2)CC1 [Prestw-Frag-3751, Compound 367] | -0.24 | 
Cc1[nH]cnc1CO [Prestw-Frag-3752, Compound 153] | 0.29 | 
c1ncc(C2CCNCC2)[nH]1 [Prestw-Frag-3753, Compound 303] | -0.23 | 
CC(=O)C1CCNCC1 [Prestw-Frag-3756, Compound 333] | -0.19 | 
CC1CCC(=O)O1 (stereo not drawn) [Prestw-Frag-3757, Compound 251] | -0.06 | 
c1ccc(-n2cccn2)cc1 [Prestw-Frag-3759, Compound 239] | -0.29 | 
